ChEMBL document CHEMBL1201862, “PubChem BioAssay data set” (2004)
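Values below derive from 48-hour exposures of cells grown in 96-well plates, with endpoints linearly interpolated between the two concentrations bracketing the appropriate inhibition level. GI50 is the concentration that inhibits growth by half.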 The source made the active and inactive calls. Cut-off read from the data, not from the text of the source: active = GI50 up to about 1.1 µM and inactive = higher.

Assays:
Experiment in all cases: DTP human tumour cell line panel, 48 h
MOLT-4 = tested on: MOLT-4
KM12 = tested on: KM12
MDA-N = tested on: MDA-N
HCC 2998 = tested on: HCC 2998
SK-MEL-28 = tested on: SK-MEL-28
HL-60 = tested on: HL-60
SK-MEL-5 = tested on: SK-MEL-5
Hs-578T = tested on: Hs-578T
A498 = tested on: A498
LOX IMVI = tested on: LOX IMVI
OVCAR-4 = tested on: OVCAR-4
MCF7 = tested on: MCF7
786-0 = tested on: 786-0
NCI/ADR-RES = tested on: NCI/ADR-RES
U-251 = tested on: U-251
T47D = tested on: T47D
UO-31 = tested on: UO-31
HOP-62 = tested on: HOP-62
Malme-3M = tested on: Malme-3M

Compound | GI50 (MOLT-4) | GI50 (KM12) | GI50 (MDA-N) | GI50 (HCC 2998) | GI50 (SK-MEL-28) | GI50 (HL-60) | GI50 (SK-MEL-5) | GI50 (Hs-578T) | GI50 (A498) | GI50 (LOX IMVI) | GI50 (OVCAR-4) | GI50 (MCF7) | GI50 (786-0) | GI50 (NCI/ADR-RES) | GI50 (U-251) | GI50 (T47D) | GI50 (UO-31) | GI50 (HOP-62) | GI50 (Malme-3M)
COc1c2ccoc2c(OC)c2oc(=O)ccc12 [ISOPIMPINELLIN] | > 100 µM (inactive) | > 100 µM (inactive) | > 100 µM (inactive) | > 100 µM (inactive) | > 100 µM (inactive) | > 100 µM (inactive) | 94.4 µM (inactive) | 62.1 µM (inactive) | > 100 µM (inactive) | > 100 µM (inactive) | > 100 µM (inactive) | > 100 µM (inactive) | > 100 µM (inactive) | > 100 µM (inactive) | > 100 µM (inactive) | > 100 µM (inactive) | 95.7 µM (inactive) | > 100 µM (inactive) | 
Oc1ccc(-c2nc(-c3cccnc3)c(-c3ccc(Cl)cc3)[nH]2)cc1O | 3.78 µM (inactive) | 8.97 µM (inactive) | 11.7 µM (inactive) | 13.7 µM (inactive) | 17.5 µM (inactive) | 5.05 µM (inactive) | 13 µM (inactive) | 12.2 µM (inactive) |  | 9.82 µM (inactive) | 16.1 µM (inactive) | 11.5 µM (inactive) | 12 µM (inactive) | 14.1 µM (inactive) | 11 µM (inactive) | 11.4 µM (inactive) | 12.8 µM (inactive) | 12.4 µM (inactive) | 14 µM (inactive)
Clc1ccccc1/C=C\C1(c2ccccc2)OCCO1 | 15.9 µM (inactive) | 11 µM (inactive) | 15.6 µM (inactive) | 17.5 µM (inactive) | 21.1 µM (inactive) | 24.8 µM (inactive) | 19.8 µM (inactive) | 13.8 µM (inactive) | 20.7 µM (inactive) | 5.36 µM (inactive) | 18 µM (inactive) | 2.77 µM (inactive) | 16.5 µM (inactive) | 16.4 µM (inactive) | 12.2 µM (inactive) | 26.9 µM (inactive) | > 100 µM (inactive) | 22.3 µM (inactive) | 
O=Cc1ccc(-c2cc(C=O)c(-c3cccs3)[nH]2)s1 | 20.2 µM (inactive) | 25.8 µM (inactive) | 18.6 µM (inactive) | 16.6 µM (inactive) | 36.3 µM (inactive) |  | 23 µM (inactive) | 23.4 µM (inactive) | 2.6 µM (inactive) | 25.3 µM (inactive) | 26 µM (inactive) | 19.4 µM (inactive) | 48.4 µM (inactive) | 26.7 µM (inactive) | 18.7 µM (inactive) | 8.85 µM (inactive) | 26.6 µM (inactive) | 21.3 µM (inactive) | 46.7 µM (inactive)
O=C(NCCNCCO)N/N=C/c1ccc([N+](=O)[O-])cc1 | > 100 µM (inactive) | > 100 µM (inactive) | 61.4 µM (inactive) | > 100 µM (inactive) | > 100 µM (inactive) | > 100 µM (inactive) | > 100 µM (inactive) | 57.1 µM (inactive) | 47.4 µM (inactive) |  |  | 48.9 µM (inactive) | > 100 µM (inactive) | > 100 µM (inactive) | > 100 µM (inactive) | > 100 µM (inactive) | > 100 µM (inactive) | > 100 µM (inactive) | 43.8 µM (inactive)
COc1cccc([C@@H]2C/C(=N\NC(=O)C(=O)N[C@@H](C)c3ccccc3)c3cc4c(cc3N2)OCO4)c1 | 21 µM (inactive) | 6.89 µM (inactive) | 7.19 µM (inactive) | 50.9 µM (inactive) | > 100 µM (inactive) |  | 3.06 µM (inactive) | 19.7 µM (inactive) | 47.4 µM (inactive) | 80 µM (inactive) | 74 µM (inactive) | 8.32 µM (inactive) | 82 µM (inactive) | 13.9 µM (inactive) | > 100 µM (inactive) | > 100 µM (inactive) | > 100 µM (inactive) | 69.5 µM (inactive) | 
O=C1c2scc(-c3ccc(F)cc3)c2-n2cccc21 | 27.9 µM (inactive) | 43 µM (inactive) | 8.67 µM (inactive) | 23.5 µM (inactive) | 29.2 µM (inactive) |  | 22.4 µM (inactive) | 20.3 µM (inactive) | 1.47 µM (inactive) | 24.6 µM (inactive) | 39.4 µM (inactive) | 21.2 µM (inactive) | 15.7 µM (inactive) | 33 µM (inactive) | 15.7 µM (inactive) | 13.6 µM (inactive) | 8.99 µM (inactive) | 15.6 µM (inactive) | 52.1 µM (inactive)
Cc1cccc2c(N)c3cccc(C(=O)NCC[N+](C)(C)Cc4ccc([N+](=O)[O-])s4)c3nc12 | 0.472 µM (active) | 9.06 µM (inactive) | 16 µM (inactive) | 11.1 µM (inactive) | 33 µM (inactive) |  | 11.6 µM (inactive) | 8.51 µM (inactive) | 4.65 µM (inactive) | 3.84 µM (inactive) | 8.15 µM (inactive) | 2.23 µM (inactive) | 1.98 µM (inactive) | 43.8 µM (inactive) | 2.91 µM (inactive) | 13.6 µM (inactive) | 11.4 µM (inactive) | 4.21 µM (inactive) | 8.2 µM (inactive)
